Holding throughout (format): cell-based, human
One assay relates to BAL27862-resistant cells. The experiment in a line: Response of BAL27862-resistant lines to other microtubule agents (all lines tested). The settings on record: all lines tested (Table 1). The method, then: (§1) BAL27862-resistant sublines of human non-small cell lung cancer (H460 ATCC reference HTB-177; A549 ATCC reference CCL-185), ovarian cancer (SKOV3 ATCC reference HTB-77) and T-cell leukemia (Jurkat ATCC reference TIB-152) cell lines were generated by long-term selection in complete cell culture medium (RPMI-1640 containing 10% FBS; Sigma-Aldrich) by increasing BAL27862 concentrations in a stepwise fashion. […] The resistance factors were determined for the adherent cell lines H460, A549 and SKOV3 by measuring proliferation using the Crystal Violet assay, whereas for the suspension Jurkat cell line cell death was measured using FACS. The resistant sub lines were expanded at the highest tolerated BAL27862 concentration and subsequently frozen and stored in liquid nitrogen.
A549 (2000 cells/well), H460 (1000 cells/well) and SKOV3 (2000 cells/well) cells were seeded in 96 well plates. […] After medium was removed, cells were fixed and stained by adding 50 μl Crystal Violet stain (0.2% Crystal Violet in 50% Methanol) per well. […] Absorbance at 590 nm was measured using a SpectraMax M2e plate reader (Molecular Devices).
(§2) Antiproliferative IC50 and cell death EC50 values were calculated from concentration response curves using GraphPad Prism software. Resistance factors were calculated as a ratio of the IC50 or EC50 in the resistant line variant versus the IC50 or EC50 in the parental line.

The next assay relates to A549. The experiment in a line: Crystal Violet proliferation assay, BAL27862-resistant versus parental A549. The settings on record: for Resistance factor (ratio IC50 BAL27862-resistant cell line variant versus IC50 parental cell line): 72 hours, Crystal Violet. The method, then: as §1
(§3) A549 (2000 cells/well), H460 (1000 cells/well) and SKOV3 (2000 cells/well) cells were seeded in 96 well plates. […] After medium was removed, cells were fixed and stained by adding 50 μl Crystal Violet stain (0.2% Crystal Violet in 50% Methanol) per well. Plates were incubated for 1 hour at room temperature. Subsequently the stain was decanted and plates were washed 4 times with double-distilled water. Plates were air-dried for several hours. Stain was dissolved by adding 100 μl buffer (0.1 M Tris pH 7.5, 0.2% SDS, 20% Ethanol) per well and shaking the plates. Absorbance at 590 nm was measured using a SpectraMax M2e plate reader (Molecular Devices).
as §2

A further assay deals with H460. The experiment in a line: Crystal Violet proliferation assay, BAL27862-resistant versus parental H460. The settings on record: for Resistance factor (ratio IC50 BAL27862-resistant cell line variant versus IC50 parental cell line): 72 hours, Crystal Violet. The method, then: as §1, §3, §2
The test system of a further assay is SKOV3. Briefly: Crystal Violet proliferation assay, BAL27862-resistant versus parental SKOV3. The settings on record: for Resistance factor (ratio IC50 BAL27862-resistant cell line variant versus IC50 parental cell line): 72 hours, Crystal Violet. Here is the method: as §1, §3, §2
The next assay deals with A549 NSCLC cells. Briefly: Immunofluorescent staining of microtubules (anti-alpha tubulin). The note with it: for Microtubule phenotype of mitotic or G2/M arrested cells: 24 hours, 50 nM BAL27862, 80 nM Compound B, 20 nM Compound C. The method, then: (§4) A549 human non-small cell lung cancer (NSCLC, ATCC reference number CCL-185) cells, HeLa cervical cancer cells (ATCC reference number CCL-2) and SKBR3 breast carcinoma cells (ATCC reference number HTB-30) were seeded at densities of 50% on round microscope coverslips and cultured for 24 hours in RPMI-1640 containing 10% FCS (also referred to as FBS) at 37° C., 5% CO2. Compounds to be tested were dissolved in DMSO. The cell culture medium was replaced with medium containing the diluted compound(s) (paclitaxel, vinblastine, colchicine and nocodazole were purchased from Sigma-Aldrich) or vehicle. After treatment for the times indicated in the Brief Description of the Figures, coverslips were washed and cells were fixed in methanol/acetone (1:1) for 5 minutes at room temperature and subsequently incubated in blocking buffer (0.5% BSA and 0.1% TX-100 in PBS) for 30 minutes at room temperature. Specimens were then incubated with anti-alpha tubulin antibody (Sigma, 1:2000) for 1 hour at room temperature in blocking buffer. After several washing steps cells were incubated with AlexaFluor-488 goat-anti-mouse IgG (Molecular Probes, 1:3000) for 1 hour at room temperature followed by several washing steps with blocking buffer. Specimens were then mounted with ProLong Gold antifade (Molecular Probes) sealed with nail polish and examined with a Leica immunofluorescence microscope. Images were captured with a cooled CCD-camera and processed by ImageJ software.

For assay [1], the system named is HeLa cervical cancer cells. Described as above. The note with it: 24 hours, 50 nM BAL27862. Here is the method:
as §4

The test system of assay [2] is SKBR3 breast cancer cells. Described as above. The note with it: 24 hours, 50 nM BAL27862. Here is the method:
as §4

Another assay has as its system Jurkat. The experiment in a line: FACS cell death assay, BAL27862-resistant versus parental Jurkat cells expressing GFP. The method, then:
as §1, with “The resistant sub lines were expanded at the highest tolerated BAL27862 concentration and subsequently frozen and stored in liquid nitrogen.” left out
Jurkat cells stably expressing GFP (green fluorescence protein) were incubated with increasing BAL27862 concentrations in culture medium for 72 hours and then analyzed by FACS (excitation at 488 nm, emission at 525 nm). Dying or dead cells, showing a decreased fluorescence activity in comparison to living cells, were quantified (Green fluorescent protein as a novel tool to measure apoptosis and necrosis. Strebel et al, 2001, Cytometry 43(2): 126-133).
as §2

Molecules are shown by their SMILES.

On to `CC(=O)O[C@H]1C(=O)[C@@]2(C)[C@H]([C@H](OC(=O)c3ccccc3)[C@]3(O)C[C@H](OC(=O)[C@H](O)[C@@H](NC(=O)c4ccccc4)c4ccccc4)C(C)=C1C3(C)C)[C@]1(OC(C)=O)CO[C@@H]1C[C@@H]2O` [Paclitaxel, paclitaxel], for which the “Sensitivity of BAL27862-resistant lines compared to parental lines” value in the assay on BAL27862-resistant cells is reported as “increased sensitivity”. For the same compound, the “Resistance factor (ratio IC50 BAL27862-resistant cell line variant versus IC50 parental cell line)” value in the assay with A549 is on record as 0.06; with H460, 0.3; with SKOV3 (SKOV3 resistant 1), 0.4; in the assay with SKOV3 (SKOV3 resistant 2), 0.5.
Take `N#CCCNc1nonc1-c1nc2ccccc2n1CC(=O)c1ccc(N)nc1` [Compound C, 3-(4-{1-[2-(6-Amino-pyridin-3-yl)-2-oxo-ethyl]-1H-benzoimidazol-2-yl}-furazan-3-ylamino)-propionitrile]: the “Microtubule phenotype of mitotic or G2/M arrested cells” value with A549 NSCLC cells was “dot-like structures”.
In the case of `CC[C@]1(O)C[C@@H]2CN(CCc3c([nH]c4ccccc34)[C@@](C(=O)OC)(c3cc4c(cc3OC)N(C)[C@H]3[C@@](O)(C(=O)OC)[C@H](OC(C)=O)[C@]5(CC)C=CCN6CC[C@]43[C@@H]65)C2)C1` [Vinblastine, vinblastine], the results for the “Resistance factor (ratio IC50 BAL27862-resistant cell line variant versus IC50 parental cell line)” value in the assay with A549, with H460 and with SKOV3 (SKOV3 resistant 1) were 2.3, 4.6 and 15.7, respectively.
For `COc1cc2c(c(OC)c1OC)-c1ccc(OC)c(=O)cc1[C@@H](NC(C)=O)CC2` [Colchicine, colchicine], the “Resistance factor (ratio IC50 BAL27862-resistant cell line variant versus IC50 parental cell line)” value with A549 turned out to be 0.9; in the assay on H460 it was 1.6; in the assay with SKOV3 (SKOV3 resistant 1), 2.0; with SKOV3 (SKOV3 resistant 2) it was 2.8.
Take `COC(=O)Nc1nc2ccc(C(=O)c3cccs3)cc2[nH]1` [Nocodazole, nocodazole]: the “Resistance factor (ratio IC50 BAL27862-resistant cell line variant versus IC50 parental cell line)” value with A549 is reported as 1.6; in the assay on H460, 1.3; with SKOV3 (SKOV3 resistant 1), 3.6; in the assay on SKOV3 (SKOV3 resistant 2) it was 3.9.
As for `N#CCCNc1nonc1-c1nc2ccccc2n1CC(=O)c1ccc(N)cc1` [BAL27862, 3-(4-{1-[2-(4-Amino-phenyl)-2-oxo-ethyl]-1H-benzoimidazol-2-yl}-furazan-3-ylamino)-propionitrile], the “Resistance factor versus parental line (based on IC50)” value was 3.0 fold with A549, 5.3 fold in the assay on H460, 7.6 fold with SKOV3 (SKOV3 resistant 1) and 11.6 fold in the assay with SKOV3 (SKOV3 resistant 2). In addition, the “Resistance factor (ratio IC50 BAL27862-resistant cell line variant versus IC50 parental cell line)” value stood at 3.0 in the assay on A549, 5.3 in the assay on H460, 7.6 in the assay with SKOV3 (SKOV3 resistant 1) and 11.6 in the assay with SKOV3 (SKOV3 resistant 2). Further, in the assay on A549 NSCLC cells (24 hours vinblastine, colchicine, paclitaxel or nocodazole, BAL27862 added for the last 4 hours), the “Microtubule phenotype on combination treatment” value was “disruption of the microtubule structures”. Also, the “Microtubule phenotype of mitotic or G2/M arrested cells” value (in the assay on A549 NSCLC cells; in assay [1]; in assay [2]) was “dot-like structures” each time. The “Resistance factor versus parental line (based on EC50)” value in the assay with Jurkat is given as 22.5 fold. For the same compound, the “Resistance factor (ratio EC50 BAL27862-resistant cell line variant versus EC50 parental cell line)” value with Jurkat (72 hours, cell death by FACS) worked out at 22.5.
On to `Nc1ccc(C(=O)Cn2c(-c3nonc3N)nc3ccccc32)cc1` [Compound B, 2-[2-(4-Amino-furazan-3-yl)-benzoimidazol-1-yl]-1-(4-amino-phenyl)-ethanone], for which the “Microtubule phenotype of mitotic or G2/M arrested cells” value with A549 NSCLC cells is “dot-like structures”.

These data come from patent publication US10067120B2, “Use of acetylated tubulin as a biomarker of drug response to furazanobenzimidazoles” (Basilea Pharmaceutica AG, priority 2011, dated 2018).
